Assay results from patent US4923878A, “Quinolizine sulfonamides used against certain neoplastic disease states” (Merck & Co., Inc., priority 1988, dated 1990).

Assays:
[1] = system: cell lines derived from renal carcinomas; assay: MTT-microculture tetrazolium assay, growth inhibition of cell lines derived from renal carcinomas; format: cell-based, human; conditions: at the indicated concentrations; 6 days at 37° C.
Excerpt: (§1) Tests carried out in accordance with the procedures described in Cancer Research 48, 589-601, February 1988, Feasibility of Drug Screening with Panels of Human Tumor Cell Lines Using a Microculture Tetrazolium Assay--Shoemaker et al., and Cancer Research 48, 4827-4833, September 1988, Evaluation of a Soluble Tetrazolium/Formazan Assay for Cell Growth and Drug Sensitivity in Culture using Human and other Tumor Cell Lines--Shoemaker et al. A brief description of this procedure follows. For further details refer to the above identified articles.
(§2) The procedure was carried out on cell lines from various disease types. Cell lines were maintained as stocks in RPMI 1640 (Quality Biological, Gaithersburg, Md.) supplemented with 10% fetal bovine serum (Sterile Systems, Logon, UT) and 2mM L-glutamine (Central Medium Laboratory, NCI FCRF). Cell cultures were passaged once or twice weekly using trypsin-EDTA(Central Medium Laboratory, NCI-FCRF) to detach the cells from their culture flasks. […]
(§3) Cellular growth in the presence or absence of the test compound was determined using the MTT-microculture tetrazolium assay. In the MTT assay rapidly growing cells are harvested, counted and inoculated at the appropriate concentrations (100-μl volume) into 96-well microtiter plates using a multichannel pipet. […]

[2] = system: SN-12KI; assay: MTT-microculture tetrazolium assay, growth inhibition of renal SN-12KI cells; format: cell-based; conditions: Homo sapiens, 144 h; Renal cell line SN-12KI; 6 days at 37° C.; 0.5% DMSO
Excerpt: as §1, §2, §3

[3] = system: A704; assay: MTT-microculture tetrazolium assay, growth inhibition of renal A704 cells; format: cell-based; conditions: Homo sapiens, 144 h; Renal cell line A704; 6 days at 37° C.; 0.5% DMSO
Excerpt: as §1, §2, §3

[4] = system: A498; assay: MTT-microculture tetrazolium assay, growth inhibition of renal A498 cells; format: cell-based; conditions: Homo sapiens, 144 h; Renal cell line A498; 6 days at 37° C.; 0.5% DMSO
Excerpt: as §1, §2, §3

SMILES: CS(=O)(=O)NCCN[C@@H]1CCN2CCc3c(oc4ccccc34)[C@@H]2C1 (relative stereo) [(2RS,12bSR)-N-[2-(1,3,4,6,7,12b-hexahydro-2H-benzo[b]furo[2,3-a]quinolizin-2-yl)]-N-2-((methanesulfonyl)ethyl)amine]
- growth inhibition of cell lines derived from renal carcinomas (in words) [1]: selectively inhibit the growth of cell lines derived from renal carcinomas
- IC50 [2]: 6.3 µM
- IC50 [3]: 0.16 µM
- IC50 [4]: 1.6 µM
